Laboratory results: paper PMC12301034, “Design and Synthesis of Boronic Chalcones with Dual Anticancer and Anti-Inflammatory Activity” (Molecules, 2025)
Entries after “also recorded” stand apart in the source; their conditions may differ.

How the values were obtained:
[1] = Distribution coefficient (eLogD) by HPLC retention time; assay type: physicochemical; settings: Supelco Ascentis Express RP Amide column, pH 7.4, read-out: LogD7.4
Method: The determination of the experimental distribution coefficient (eLogD) was based on the retention time of molecules in the stationary phase using high-performance liquid chromatography (HPLC). Chromatographic analysis was performed on a Supelco Ascentis Express RP Amide HPLC column (5 cm × 2.1 mm, 2.7 μm), with a binary gradient mobile phase consisting of (A) 5% methanol in 10 mM ammonium acetate pH 7.4 and (B) 100% methanol. The mobile phase was eluted as follows: 0 min, 95% A; 0.3 min, 100% A; 5.2 min, 0% A; 5.6 min, 0% A; 5.8 min, 100% A; 7.0 min, 100% A. The total run time was 7 min, with a sample injection volume of 5 μL. Test compounds were prepared by diluting stock solutions (1.0 mg/mL in DMSO) in a mixture of mobile phases A:B (1:1 v/v) containing an internal standard (200 nM), achieving a final concentration of 1.0 μg/mL (final DMSO concentration ≤ 1%). The prepared solutions were transferred to a 96-well plate in duplicate, which was then sealed and introduced into the autosampler for analysis. […]. These reference and control compounds were injected at the beginning and end of the experimental procedure. A calibration graph was obtained by plotting the retention times of the reference compounds against their respective LogD values. The resulting equation (y = mx + b) was used to calculate the eLogD7.4 values for the test compounds and controls. […]

[2] = test system: HCT116 p53^−/− cells; experiment: SRB cytotoxicity assay on HCT116 p53-/- cells; assay type: cell-based, human; settings: Homo sapiens, HCT-116, 48 h of treatment
From the text: (§1) The SCC-25 (ATCC® CRL-1628™), Detroit-562 (ATCC® CCL-138™), and THP-1 (ATCC® TIB-202™) cells were purchased from Rio de Janeiro Cell Bank (Duque de Caxias, Brazil), and NOK-si was kindly provided by Prof. Carlos Rossa from the School of Dentistry—UNESP. All the cells were cultivated according to standard conditions. Human colorectal adenocarcinoma HCT116 cell lines (ATCC® CCL-247™) expressing p53 and its p53-null isogenic derivative (HCT116 p53^−/−) were provided by B. Vogelstein (The Johns Hopkins Kimmel Cancer Center, Baltimore, MD, USA).
(§2) HCT p53^+/+ and HCT p53^−/− cell lines were seeded in 96-well plates, with a concentration of 5000 cells/well, and allowed to adhere overnight. Afterwards, they were treated with serial dilutions of the compounds for an additional 48 h (compounds were prepared at 30 mM, in DMSO, and tested with a starting concentration of 50μM and 15 μM). Cells passed then through a series of essential steps (fixation with 10% trichloroacetic acid, for 1 h at 4 °C; staining with 0.4% sulforhodamine B (SRB); wash with 1% acetic acid; and solubilization with 10 mM Tris-Base); subsequently, absorbance was measured at 510 nm in a microplate reader (Biotek Instruments Inc., Synergy, MX, USA). IC50 values were determined using GraphPad Prism software, Version 7.0 (La Jolla, CA, USA).

[3] = Metabolic stability in mouse (CD-1) liver microsomes; assay type: in vitro ADME
Method: The metabolic stability of test compounds and controls [imipramine (Sigma-Aldrich, St. Louis, MO, USA), verapamil (Sigma-Aldrich, St. Louis, MO, USA), and warfarin (Sigma-Aldrich, St. Louis, MO, USA)] were assessed using human pooled liver human microsomes (20 mg/mL) (GIBCO, Frederick, MD, USA) and pooled liver CD1 mouse microsomes (20 mg/mL) (GIBCO, Frederick, MD, USA). […] Microsomal suspensions were thawed and diluted in phosphate buffer to obtain a final concentration of 0.25 mg/mL. A solution of NADPH (Sigma-Aldrich, St. Louis, MO, USA) at […] was also prepared in phosphate buffer. […] The plate was incubated at 37 °C under shaking (100 rpm). […] The reactions were stopped by adding quenching solution (75 μL) consisting of acetonitrile:methanol (1:1) with an internal standard (50 nM). Samples were centrifuged (3500 rpm, 30 min) to remove precipitated microsomal proteins, and the supernatant fractions were analyzed by an LCMS-8045 system (Shimazu, Kyoto, Japan). The chromatographic analysis was performed using a Supelco Ascentis Express C18 column (3 cm × 2.1 mm, 5 μm). The mobile phases consisted of water + 0.1% formic acid (A) and acetonitrile + 0.1% formic acid (B). […] The run time was 2 min, with a sample injection volume of 10 μL and a flow rate of 0.7 mL/min. Metabolic stability was assessed by calculating the peak area ratios (analyte/internal standard) and converting them into the percentage of the compound remaining, using the area ratio at time 0 as 100%.

[4] = test system: TNF; experiment: Anti-inflammatory assay, TNF in LPS-stimulated THP-1 cells (CBA); assay type: cell-based, human
Method: For this assay, THP-1 (BCRJ cód. 0234) cells were cultured in Roswell Park Memorial Institute (RPMI-1640, Sigma-Aldrich; Saint Louis, MO, USA) media supplemented with 2 mM L-glutamine, 1 mM sodium pyruvate, 1.50 g/L of sodium bicarbonate, and 10% fetal bovine serum. For obtaining Macrophage-like cells, 250,000 cells per well were plated in a 24-well cell culture plate. A total of 20 ng/mL of Forbol 12-miristato-13-acetato (PMA) was added to each well, and the cells were incubated for 48 h at 37 °C with 5% CO2. After the 48 h, the wells were washed with 1X PBS, and fresh RPMI-1640 media was added. The cells were then incubated for 24 h at 37 °C and 5% CO2. For the cell’s stimulations, after the 24 h, the well was washed with PBS and fresh RPMI1640 media without fetal bovine serum added. For the positive controls of the assay, 3 wells were stimulated with LPS (1 ng/µL) diluted in the same volume and media used for the drugs stimulation. Two different concentrations (2 and 4 µg/mL) were evaluated for each molecule, which were determined to be non-cytotoxic through a cell viability assay. After a 24 h period, the supernatant was removed and used in the cytokine quantification assay. A kit for inflammatory cytokines, BD® Cytometric Bead Array CBA Human Inflammatory, was employed for this assay, containing the following human cytokines: IL-8, IL-1β, IL-6, and TNF. Standard cytokines were prepared in 9 different concentrations: 1:256, 1:128, 1:64, 1:32, 1:16, 1:8, 1:4, 1:2, and 1:1 (“top standard”). Analysis was performed using a Flow Cytometer FACS Aria Fusion BD (Bioscence, Houston, TX, USA). Data analysis was conducted using Prism software (version 10.4.1).

[5] = test system: HCT116 p53^+/+ cells; experiment: SRB cytotoxicity assay on HCT116 p53+/+ cells; assay type: cell-based, human; settings: Homo sapiens, HCT-116, 48 h of treatment
From the text: as §1, §2

chromatographic logD [1]: 3.92
microsomal CLint at 0.51 μM ([3]; CD-1, mouse, microsomes, pH 7.4): 36 µL/min/mg
half-life at 0.51 μM ([3]; CD-1, mouse, pooled liver microsomes, pH 7.4, read-out: Mouse Liver Microsome (MsLM) T1/2): 56.8 min
Mouse Liver Microsome (MsLM) T1/2 ([3]; mouse): 77.02 min
Compound: COc1cccc(C(=O)/C=C/c2cccc(B(O)O)c2)c1 [Compound 5, (E)-(3-(3-(3-methoxyphenyl)-3-oxoprop-1-en-1-yl)phenyl)boronic acid]
IC50 [2]: 2160 ± 310 nM
TNF levels relative to untreated THP-1 cells ([4]; 7.1 μM): reducing them below those of untreated THP-1 cells
reduction of TNF levels ([4]; 2 and 4 µg/mL, 24 h): significantly reduced; also recorded: pronounced reduction
IC50 [5]: 2500 ± 170 nM
